Source: publication PMC4700278, “Molecular and Biochemical Analysis of the Estrogenic and Proliferative Properties of Vitamin E Compounds” (Frontiers in Oncology, 2016)

Key:
[1] = test system: ER-dependent transcription in MELN cells; test: ERE-luciferase reporter assay in MELN cells (MCF-7 stably transfected with ERE-β-globin-tk-Luc); assay type: cell-based, human; details: for stimulation of luciferase expression (ER-dependent transcription): 500 μM (tocols 10 to 500 μM)
Source text: MELN cells were established by transfecting ER(+) MCF-7 cells with the ERE-β-globin-tk-Luc-SV-Neo plasmid ([36]). HELN cells were generated by transfection of ER(−) HeLa cells with this plasmid. The HELN-ERα, HELN-ERβ, HELN-ΔAB-ERα, and HELN-ΔAB-ERβ cell lines then underwent a second transfection with the corresponding pSG5-puro plasmids (pSG5-ERα-puro, pSG5-ERβ-puro, pSG5-ΔAB-ERα-puro, and pSG5-ΔAB-ERβ-puro, respectively) and expressed wild-type or mutated ERα or ERβ ([39], [40]). […] Comparison of the activities toward hERα and hERβ with the truncated ΔAB-ERα and ΔAB-ERβ provides a powerful model to identify partial ER agonists (requiring ligand-independent AF-1 to induce maximal ER activation). […] Cells were grown routinely in DMEM growth medium supplemented with 5% FBS (Gibco BRL, Life Technologies, Cergy pontoise, France). Cells were incubated at 37°C in a humidified 5% CO2 incubator. For experiments, cells were grown for 5 days in phenol red-free medium, containing 6% dextran-coated charcoal-treated FCS (DCC-FCS) with penicillin–streptomycin. Medium was changed after 2 days. On day 5, cells were treated or not with the compounds, which were dissolved in ethanol. For each condition, 15 × 10^3 cells were seeded per well in 12-well plates and treated, as described above, for 8 h in a final volume of 0.5 ml. At the end of the treatment, cells were washed with PBS and lysed in 150 μl lysis buffer (Promega, Charbonnières, France). Luciferase activity was measured using the luciferase assay reagent (Promega), according to the manufacturer’s instructions. Protein concentrations were measured using the Bradford technique ([41]) to normalize the luciferase activity data. For each condition, average luciferase activity was calculated from the data of three independent wells.
Figure 3 Measurement of estrogenicity of tocols in vitro. (A) Dose–response curve of the effect of tocols on MCF-7 cells stably transfected with the ERE-β-globin-tk-Luc plasmid (MELN cells). […] Data shown are the mean values ± SEM from three independent experiments. […] MCF-7 extracts were analyzed for the presence of ERα by western blotting using GAPDH as a control. […] The western blot shown is representative of three independent experiments. The ratio of ERα to GAPDH levels in each experiment was determined densitometrically and normalized to control value (taken to be 1). (D) Effect of δ-tocols on estrogen response element-dependent luciferase activity in HELN cells, which are HELA cells transfected with either fully functional ERα or ERβ or their mutated versions containing a deletion the AB domain (ΔAB). […] Data shown are the mean values ± SEM from three independent experiments. […] Cells were treated with 500 μM δ-tocols in the presence or in the absence of ICI. The relative expression of TGFα, PR, and Ps2 (TFF1) after 16 h was analyzed by quantitative RT-PCR. Data shown are the mean values ± SEM from three independent experiments.

ERα = molecular target: T1, ERα (Homo sapiens, UniProt P03372); test: Estrogen receptor-binding assay, competition with [3H]-17β-estradiol; set-up: expressed in transfected cells; host or cells: Cos-7; details: extracts of cos-7 cells expressing human ERα; 2 nM [3H]-E2; tocols 1 μM to 1 mM; N.M. = not measurable
T1 sequence (P03372 1-595): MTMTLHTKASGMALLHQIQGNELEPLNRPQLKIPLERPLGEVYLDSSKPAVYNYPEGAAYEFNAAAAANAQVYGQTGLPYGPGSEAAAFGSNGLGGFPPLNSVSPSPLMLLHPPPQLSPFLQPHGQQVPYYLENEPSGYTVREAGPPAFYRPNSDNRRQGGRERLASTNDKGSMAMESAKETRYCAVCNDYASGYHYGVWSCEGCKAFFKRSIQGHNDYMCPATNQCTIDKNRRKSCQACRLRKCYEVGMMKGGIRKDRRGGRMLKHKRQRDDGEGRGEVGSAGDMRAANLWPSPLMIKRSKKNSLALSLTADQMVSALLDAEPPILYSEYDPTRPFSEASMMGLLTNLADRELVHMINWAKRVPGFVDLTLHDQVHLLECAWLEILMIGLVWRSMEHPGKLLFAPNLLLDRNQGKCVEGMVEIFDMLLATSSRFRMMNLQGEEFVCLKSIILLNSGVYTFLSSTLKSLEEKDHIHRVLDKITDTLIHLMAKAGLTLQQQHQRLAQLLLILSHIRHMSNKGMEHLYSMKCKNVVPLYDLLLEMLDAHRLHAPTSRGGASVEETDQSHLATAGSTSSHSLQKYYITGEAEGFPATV

ERβ = ERβ (Homo sapiens, UniProt Q92731); test: as above; set-up: expressed in transfected cells; host or cells: Cos-7; details: extracts of cos-7 cells expressing human ERβ; 2 nM [3H]-E2; tocols 1 μM to 1 mM; N.M. = not measurable
Chain of ERβ (Q92731 whole entry): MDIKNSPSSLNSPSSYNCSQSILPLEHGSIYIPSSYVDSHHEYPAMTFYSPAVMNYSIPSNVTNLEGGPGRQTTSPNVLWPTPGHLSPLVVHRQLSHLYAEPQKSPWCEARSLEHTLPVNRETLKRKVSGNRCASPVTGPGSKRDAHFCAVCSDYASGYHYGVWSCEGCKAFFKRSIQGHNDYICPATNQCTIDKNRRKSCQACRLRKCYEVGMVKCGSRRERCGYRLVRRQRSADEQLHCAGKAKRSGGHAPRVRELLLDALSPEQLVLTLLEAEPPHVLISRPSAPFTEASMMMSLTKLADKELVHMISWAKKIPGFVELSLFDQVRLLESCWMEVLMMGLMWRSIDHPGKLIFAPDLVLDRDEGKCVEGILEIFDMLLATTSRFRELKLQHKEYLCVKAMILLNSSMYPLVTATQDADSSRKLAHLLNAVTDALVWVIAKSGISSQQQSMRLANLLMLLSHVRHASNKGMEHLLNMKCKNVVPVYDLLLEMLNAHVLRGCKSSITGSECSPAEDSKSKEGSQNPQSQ

MCF-7 (ER(+)) cells = test: Cell proliferation assay (sulforhodamine B); assay type: cell-based, human
Protocol: (§1) MCF-7 (ER(+)), T47D (ER(+)), and MDA-MB-231 (ER(−)) cell lines were from ATCC. Cell lines were maintained at 37°C in a humidified incubator in a 5% CO2-enriched atmosphere in T-75 flasks. […] Cells were grown for 24 h before treatment in phenol red-free medium containing 5% DCC-FCS. Cells were seeded into 96-well plates at 2000 cells/well. Treatment media (150 μl/well) was added on the following day and replaced at 48-h intervals until the end of the experiment. Cell density was measured via the sulforhodamine B method ([43]) after 0, 2, 4, 6, and 8 days. The absorbance of SRB was measured directly at 490 nm in the 96-well plates using a multiskan® multisoft reader from Labsystem.

T47D (ER(+)) cells = test: Cell proliferation assay (sulforhodamine B); assay type: cell-based, human
Protocol: as §1

MDA-MB-231 (ER(−)) cells = test: Cell proliferation assay (sulforhodamine B); assay type: cell-based, human; details: 500 μM δ-TP or δ-TT; 30 μM lovastatin; 6-day period
Protocol: MCF-7 (ER(+)), T47D (ER(+)), and MDA-MB-231 (ER(−)) cell lines were from ATCC. Cell lines were maintained at 37°C in a humidified incubator in a 5% CO2-enriched atmosphere in T-75 flasks. MCF-7, T47D, and MDA-MB-231 cells were grown routinely in phenol red RPMI 1640 medium supplemented with 5% FBS (Gibco BRL, Life Technologies, Cergy Pontoise, France) and with penicillin–streptomycin. Cells were grown for 24 h before treatment in phenol red-free medium containing 5% DCC-FCS. Cells were seeded into 96-well plates at 2000 cells/well. Treatment media (150 μl/well) was added on the following day and replaced at 48-h intervals until the end of the experiment. Cell density was measured via the sulforhodamine B method ([43]) after 0, 2, 4, 6, and 8 days. The absorbance of SRB was measured directly at 490 nm in the 96-well plates using a multiskan® multisoft reader from Labsystem.
Figure 4 Effect of tocol on ER(+) and ER(−) BC cell proliferation and HMG-CoA reductase activity. (A) Effect of δ-tocols on estrogen and non-estrogen-regulated growth of MCF-7, T47D, and MDA-MB-231 cells. […] Cells were also treated with 30 μM lovastatin (Lova) in the presence or absence of 5 mM M, as described in Section “Materials and Methods.” Values are shown as means and vertical bars represent SEM. The data were analyzed by two-way ANOVA, followed by Bonferroni post hoc test. ***P < 0.001, **P < 0.01, and *P < 0.05 in comparison with control or bare-linked specific control. Ns: not significant. (B) Effect of δ-TT on hydroxymethylglutaryl coenzyme A reductase (HMGR) activity in MCF-7, T47D, and MDA-MB-231 cells. […] Data shown are the mean values ± SEM from three independent experiments performed in triplicate.

[2] = 500 μM δ-TP or δ-TT, 30 μM lovastatin, 6-day period

Row | IC50 (ERα) | IC50 (ERβ) | Structure (SMILES) | stimulation of luciferase expression (ER-dependent transcription) [1] | further results
1 | – | – | CC1=CC(=O)C=C(CC[C@](C)(O)CCC[C@H](C)CCC[C@H](C)CCCC(C)C)C1=O [δ-TPQuin, δ-tocopherylquinone] | did not stimulate the expression of luciferase | ERα (IC50) (ERα): did not bind and N.M.; ERβ (IC50) (ERβ): did not bind and N.M.
2 | – | – | CC(C)(Sc1cc(C(C)(C)C)c(O)c(C(C)(C)C)c1)Sc1cc(C(C)(C)C)c(O)c(C(C)(C)C)c1 [Probucol, probucol, reference compound] | did not stimulate the expression of luciferase | –
3 | 412 ± 22 µM | 388 ± 32 µM | CC(C)=CCC/C(C)=C/CC/C(C)=C/CC[C@]1(C)CCc2c(C)c(O)c(C)c(C)c2O1 [α-TT, α-tocotrienol] | – | –
4 | – | – | CCCCN(C)C(=O)CCCCCCCCCCC1Cc2cc(O)ccc2C2CC[C@@]3(C)C(CC[C@@H]3O)C12 (stereo partly shown) [ICI 164,384, reference compound] | – | blockade of tocol-induced ER-dependent transcriptional activity ([1]; 1 μM ICI 164,384 with 500 μM δ-TP or δ-TT): blocked; blockade of δ-TP- and E2-induced stimulation of MCF-7 proliferation (MCF-7 (ER(+)) cells; 1 μM ICI 164,384): blocked; blockade of δ-TP- and E2-induced stimulation of T47D proliferation (T47D (ER(+)) cells; 1 μM ICI 164,384): blocked
5 | – | – | CC[C@H](C)C(=O)O[C@H]1C[C@@H](C)C=C2C=C[C@H](C)[C@H](CC[C@@H]3C[C@@H](O)CC(=O)O3)[C@H]21 [lovastatin, reference compound] | – | effect on MCF-7 cell proliferation (MCF-7 (ER(+)) cells; [2]): inhibition of cell proliferation; effect on T47D cell proliferation (T47D (ER(+)) cells; [2]): inhibition of cell proliferation; effect on MDA-MB-231 cell proliferation (MDA-MB-231 (ER(−)) cells): inhibition of cell proliferation
6 | 227 ± 28 µM | 215 ± 16 µM | Cc1c(O)cc2c(c1C)O[C@](C)(CCC[C@H](C)CCC[C@H](C)CCCC(C)C)CC2 [γ-TP, γ-tocopherol] | – | –
7 | – | – | Cc1cc(C(C)(C)C)c(O)c(C(C)(C)C)c1 [BHT, butylated hydroxytoluene, reference compound] | did not stimulate the expression of luciferase | –
8 | 453 ± 30 µM | 431 ± 21 µM | Cc1c(C)c2c(c(C)c1O)CC[C@@](C)(CCC[C@H](C)CCC[C@H](C)CCCC(C)C)O2 [α-TP, α-tocopherol] | – | –

Row | Structure (SMILES) | IC50 (ERα) | IC50 (ERβ) | stimulation of luciferase expression (ER-dependent transcription) [1] | further results
9 | CC(C)=CCC/C(C)=C/CC/C(C)=C/CC[C@]1(C)CCc2cc(O)c(C)c(C)c2O1 [γ-TT, γ-tocotrienol] | 203 ± 25 µM | 205 ± 18 µM | – | –
